# Laboratory results published in article PMC2713172 (Biochemistry, 2008).
# B1: wild-type CYP2C9 (Homo sapiens) (protein)
# chain: MALLLAVFLCLSCLLLLSLWRQSSGRGKLPPGPTPLPVIGNILQIGIKDISKSLTNLSKVYGPVFTLYFGLKPIVVLHGYEAVKEALIDLGEEFSGRGIFPLAERANRGFGIVFSNGKKWKEIRRFSLMTLRNFGMGKRSIEDRVQEEARCLVEELRKTKASPCDPTFILGCAPCNVICSIIFHKRFDYKDQQFLNLMEKLNENIKILSSPWIQICNNFSPIIDYFPGTHNKLLKNVAFMKSYILEKVKEHQESMDMNNPQDFIDCFLMKMEKEKHNQPSEFTIESLENTAVDLFGAGTETTSTTLRYALLLLLKHPEVTAKVQEEIERVIGRNRSPCMQDRSHMPYTDAVVHEVQRYIDLLPTSLPHAVTCDIKFRNYLIPKGTTILISLTSVLHDNKEFPNPEMFDPHHFLDEGGNFKKSKYFMPFSAGKRICVGEALAGMELFLFLTSILQNFNLKSLVDPKNLDTTPVVNGFASVPPFYQLCFIPV
# Columns and labels:
# CYP2C9 F100L mutant [1] = molecular target: T1, CYP2C9 F100L mutant (Homo sapiens, UniProt P11712, F100L)
# CYP2C9 F114L mutant [2] = molecular target: T2, CYP2C9 F114L mutant (Homo sapiens, UniProt P11712, F114L)
# CYP2C9 F476L mutant [3] = molecular target: T3, CYP2C9 F476L mutant (Homo sapiens, UniProt P11712, F476L); settings: F476L
# CYP2C9 F114W mutant [4] = molecular target: T4, CYP2C9 F114W mutant (Homo sapiens, UniProt P11712, F114W)
# CYP2C9 F476W mutant [5] = molecular target: T5, CYP2C9 F476W mutant (Homo sapiens, UniProt P11712, F476W)
# [6] = molecular target: T6, CYP2C9 F114L/F476L double mutant (Homo sapiens, UniProt P11712, F114L/F476L)
# wild-type CYP2C9 [7] = molecular target: T7, wild-type CYP2C9 (Homo sapiens, UniProt P11712)
# CYP2C9 F100L mutant [8] = molecular target: T1, CYP2C9 F100L mutant; remark: listed apart in the source
# CYP2C9 F114L mutant [9] = molecular target: T2, CYP2C9 F114L mutant; remark: listed apart in the source
# CYP2C9 F476L mutant [10] = molecular target: T3, CYP2C9 F476L mutant
# CYP2C9 F114W mutant [11] = molecular target: T4, CYP2C9 F114W mutant; remark: listed apart in the source
# CYP2C9 F476W mutant [12] = molecular target: T5, CYP2C9 F476W mutant; remark: listed apart in the source
# [13] = molecular target: T6, CYP2C9 F114L/F476L double mutant; remark: listed apart in the source
# [14] = molecular target: CYP2C9 F114W/F476W double mutant (Homo sapiens, UniProt P11712, F114W/F476W)
# wild-type CYP2C9 [15] = molecular target: T7, wild-type CYP2C9; remark: listed apart in the source
# wild-type CYP2C9 [16] = molecular target: T7, wild-type CYP2C9; settings: wild-type CYP2C9
# CYP2C9 = settings: structure 1OG5; cited from earlier work
# wild-type CYP2C9 [17] = molecular target: T7, wild-type CYP2C9; settings: WT
# [18] = substrate: CC(=O)C[C@@H](c1ccccc1)c1c(O)c2ccccc2oc1=O; experiment: purified protein, by the assay type; settings: other: WT; substrate hydroxylation; 37.0 °C
molecule,measurement,setting,value
"CC(=O)C[C@@H](c1ccccc1)c1c(O)c2ccccc2oc1=O [(S)-warfarin, (S)-Warfarin]",percent of wild-type kcat/Km,CYP2C9 F100L mutant [1],133%
same,percent of wild-type kcat/Km,CYP2C9 F114L mutant [2],2%
same,percent of wild-type kcat/Km,CYP2C9 F476L mutant [3],2%
same,percent of wild-type kcat/Km,CYP2C9 F114W mutant [4],83%
same,percent of wild-type kcat/Km,CYP2C9 F476W mutant [5],500%
same,percent of wild-type kcat/Km,[6],0.4%
same,ΔAmax (maximum observed difference 390–420 nm),wild-type CYP2C9 [7],5.3 ± 0.1 ×10^−3
same,percent of wild-type ΔA/K,wild-type CYP2C9 [7]; Wild-type,100%
same,ΔAmax (maximum observed difference 390–420 nm),CYP2C9 F100L mutant [8],6.5 ± 0.06 ×10^−3
same,percent of wild-type ΔA/K,CYP2C9 F100L mutant [8]; F100L,262%
same,ΔAmax (maximum observed difference 390–420 nm),CYP2C9 F114L mutant [9],10 ± 0.07 ×10^−3
same,percent of wild-type ΔA/K,CYP2C9 F114L mutant [9]; F114L,139%
same,ΔAmax (maximum observed difference 390–420 nm),CYP2C9 F476L mutant [10],11 ± 0.2 ×10^−3
same,ΔAmax (maximum observed difference 390–420 nm),CYP2C9 F114W mutant [11],12 ± 0.3 ×10^−3
same,percent of wild-type ΔA/K,CYP2C9 F114W mutant [11]; F114W,636%
same,ΔAmax (maximum observed difference 390–420 nm),CYP2C9 F476W mutant [12],9.3 ± 0.1 ×10^−3
same,percent of wild-type ΔA/K,CYP2C9 F476W mutant [12]; F476W,225%
same,ΔAmax (maximum observed difference 390–420 nm),[13],15 ± 0.3 ×10^−3
same,percent of wild-type ΔA/K,[13]; F114L/F476L,75%
same,ΔAmax (maximum observed difference 390–420 nm),[14],12 ± 0.2 ×10^−3
same,percent of wild-type ΔA/K,[14]; F114W/F476W,303%
same,distance from the heme to all ring protons,wild-type CYP2C9 [15],6–7 Å
same,distance from the heme to the acetonyl methyl group,wild-type CYP2C9 [15],~ 9 Å
same,coupling of hydroxylation to NADPH consumption,wild-type CYP2C9 [16],~ 4%
same,distance above the heme in crystal structure,CYP2C9,~ 10 Å
same,percent of wild-type kcat/Km,wild-type CYP2C9 [17],100%
B1,Km,[18],4.1 ± 0.3 µM
same,kcat,[18],0.00417 ± 6.7e-05 s⁻¹
same,kcat/Km,[18],0.06 (100) min^−1 μM^−1
